Data on 3 compounds can be found in patent US20100151021A1 (priority 2008, published 2010).

Series [1] is described as follows: Solubility of Melperone HCl in media. The settings on record: for solubility: phosphate buffer, aqueous buffer. In kind it is physicochemical.
Series [2] concerns psychosis associated with PD. The settings on record: initial open-label studies; cited from earlier work.
Series [3] relates to psychosis in patients with PD. The settings on record: cited from earlier work.
The conditions of series [4]: clinical; cited from earlier work.
The conditions of series [5]: cited from earlier work.

What is called solubility is how much of the substance goes into solution per volume. A lower solubility goes with a poorly soluble substance. Consider `CC1CCN(CCCC(=O)c2ccc(F)cc2)CC1.Cl` [Melperone HCl, 1-(4-fluorophenyl)-4-(4-methyl-1-piperidinyl)-1-butanone hydrochloride], for which the solubility is more than 100 mg/mL in series [1] (pH 7.0 (phosphate)) and 25.6 mg/mL in series [1] (pH 7.8 (phosphate)).
For the compound `OCCOCCN1CCN(C2=Nc3ccccc3Sc3ccccc32)CC1` [quetiapine], in series [2], the “efficacy in psychosis associated with PD” value is reported as “has shown efficacy” and the “patients with worsening of motor symptoms of PD” value was “up to 30%”.
For the compound `CC1CCN(CCCC(=O)c2ccc(F)cc2)CC1` [melperone], the Solubility in words entry is “freely soluble” in series [1] (aqueous buffers at acidic to neutral pH conditions) and “poorly soluble” in series [1] (higher pH values (above pH=7.5)). In addition, in series [3] (mean daily dose of 37.5 mg), the “time over which efficacy was maintained” value is listed as 2 years. The “efficacy in the treatment of psychosis” value in series [3] (patients with PD) is reported as “has shown efficacy”. In addition, the onset of efficacy entry in series [3] (patients with PD) was “within a week”. The “incidence of extrapyramidal side effect (EPS) or tardive dyskinesia” value in series [4] was “low incidence”. Besides, in series [5] (oral tablet administration), the “mean Tmax” value is 1.5 to 3.0 h. In addition, the absolute oral bioavailability in series [5] (oral) was 50-70%.
